These results are taken from ChEMBL document CHEMBL1132691, “Structure-immunosuppressive activity relationships of new analogues of 15-deoxyspergualin. 2. Structural modifications of the spermidine moiety” (1999).

Structures are written as SMILES.

Experiment [1] has as its system Mus musculus. The experiment in a line: Tested in vivo against mouse graft-versus-host disease(GVHD) for survival (mean) after daily administration of 0.3 mg/kg (i.p.) using group of 8 mice/dose for 10 days. The class given is functional. Particulars: route intraperitoneal.
The test system of experiment [2] is Mus musculus. The experiment in a line: Tested in vivo against mouse graft-versus-host disease(GVHD) for survival (mean) after daily administration of 3 mg/kg (i.p.) using group of 8 mice/dose for 10 days. The class given is functional. Particulars: route intraperitoneal.
Experiment [3] concerns Rattus norvegicus. Kind of experiment: The compound was tested in vivo against heart transplanted rat for survival (mean) after daily administration of 6 mg/kg(ip) for 10 days. In kind it is functional.
The subject of experiment [4] is Rattus norvegicus. Kind of experiment: The compound was tested in vivo against heart transplanted rat for survival (mean) after daily administration of 2.5 mg/kg(ip) for 10 days. The class given is functional.
The subject of experiment [5] is Rattus norvegicus. Kind of experiment: The compound was tested in vivo against heart transplanted rat for survival (mean) after daily administration of 6 mg/kg(ip) for 10 days.

For `NC(N)=NCCCCCCNC(=O)COC(=O)NCCCCNCCC(N)C(F)(F)F` (configuration not stated), the results for the Mean survival with Mus musculus [1] and in the experiment on Mus musculus [2] were 16 days and 17 days, respectively.

Regarding `CC(CCN)NCCCCNC(=O)CC(=O)NCCCCCCN=C(N)N` (configuration not stated), the results for the Mean survival in the experiment with Mus musculus [1] and in the experiment with Mus musculus [2] were 11 days and 12 days, respectively.

Turning to `NCCCCNC(=O)OCC(=O)NCCCCCCN=C(N)N`, the Mean survival in the experiment on Mus musculus [1] and in the experiment with Mus musculus [2] was 14 days each time.

Consider `CN(CCCN)CCCCNC(=O)CC(=O)NCCCCCCN=C(N)N`, for which the Mean survival with Mus musculus [1] and in the experiment on Mus musculus [2] was 14 days throughout.

Turning to `CCC(N)CCNCCCCNC(=O)OCC(=O)NCCCCCCN=C(N)N` (configuration not stated), the values for the Mean survival with Mus musculus [1] and with Mus musculus [2] were 16 days and 21 days, respectively.

Turning to `CC(C)(N)CCNCCCCNC(=O)CC(=O)NCCCCCCN=C(N)N`, the Mean survival in the experiment on Mus musculus [1] and with Mus musculus [2] was 15 days throughout.

In turn, `C[C@H](N)CCNCCCCNC(=O)CC(=O)NCCCCCCN=C(N)N` yielded a Mean survival in the experiment on Mus musculus [2] of 17 days.

In the case of `C[C@H](N)CCNCCCCNC(=O)OCC(=O)NCCCCCCN=C(N)N`, the Mean survival came to 16 days in the experiment with Mus musculus [1], 9 days in the experiment with Rattus norvegicus [3] and 25 days with Mus musculus [2].

Consider `CC(CN)CNCCCCNC(=O)CC(=O)NCCCCCCN=C(N)N` (configuration not stated), for which the Mean survival with Mus musculus [1] and in the experiment with Mus musculus [2] was 18 days in each case.

Regarding `CC(N)CCNCCCCNC(=O)OCC(=O)NCCCCCCN=C(N)N` (configuration not stated), the Mean survival is 53 days in the experiment on Mus musculus [1], 56 days in the experiment on Rattus norvegicus [4] and 57 days in the experiment on Mus musculus [2].

As to `CC(N)CCNCCCCNC(=O)CC(=O)NCCCCCCN=C(N)N` (configuration not stated), the Mean survival in the experiment on Mus musculus [1] is 17 days; in the experiment on Rattus norvegicus [3] it was 24 days; in the experiment on Mus musculus [2], 60 days.

In the experiment on Mus musculus [2], `CC(CCCNCCCN)NC(=O)CC(=O)NCCCCCCN=C(N)N` (configuration not stated) had a Mean survival of 21 days.

With `C[C@@H](N)CCNCCCCNC(=O)CC(=O)NCCCCCCN=C(N)N`, the Mean survival in the experiment with Mus musculus [1] worked out at 26 days; in the experiment with Rattus norvegicus [3], 68 days; in the experiment on Mus musculus [2], 49 days.

As to `CC(CCCNC(=O)CC(=O)NCCCCCCN=C(N)N)NCCCN` (configuration not stated), the Mean survival with Mus musculus [1] is 11 days; in the experiment on Mus musculus [2], 14 days.

In the case of `NC(N)=NCCCCCCNC(=O)COC(=O)NCCCCNCCC(N)c1ccccc1` (configuration not stated), the Mean survival with Mus musculus [1] and in the experiment with Mus musculus [2] was 15 days each time.

As for `NCCCNCCCCNC(=O)CC(=O)NCCCCCCN=C(N)N`, the Mean survival with Mus musculus [1] turned out to be 17 days; in the experiment with Rattus norvegicus [3] it was 9 days; in the experiment with Mus musculus [2], 52 days.

Regarding `C[C@@H](N)CCNCCCCNC(=O)OCC(=O)NCCCCCCNC(=N)N` [ANISPERIMUS], the Mean survival in the experiment with Mus musculus [1] amounted to 60 days; with Rattus norvegicus [4], 80 days; with Mus musculus [2], 60 days.

`N=C(N)NCCCCCCC(=O)NC(O)C(=O)NCCCCNCCCN` (configuration not stated) [GUSPERIMUS] showed a Mean survival in the experiment with Rattus norvegicus [5] of 38 days.

Consider `N=C(N)NCCCCCCNC(=O)COC(=O)NCCCCNCCCN` [TRESPERIMUS], for which the Mean survival in the experiment with Mus musculus [1] was found to be 15 days; in the experiment on Rattus norvegicus [4] it was 16 days; in the experiment with Mus musculus [2] it was 58 days.
